Columns and labels:
C. ljungdahlii ERI-2 [1] = test: Carboxylic acid reduction in batch cultures with constant syngas supply; type: cell-based, Clostridium ljungdahlii; settings: 15 mM carboxylic acid; for max. opt. density at 600 nm: triplicate
Protocol: (§1) All chemicals were purchased from Sigma-Aldrich, St. Louis, Mo., unless stated otherwise. Bacterial strain and growth conditions. Most experiments were conducted with C. ljungdahlii ERI-2 (ATTC 55380), which has been used successfully for syngas to ethanol fermentation. Some experiments were repeated with C. ragsdalei P11 (ATTC BAA-622). Bacteria were grown anaerobically at 35° C. in medium designed for efficient syngas fermentation. This medium is mostly based on ATCC medium 1754 but contains higher concentrations of the macronutrient elements. The yeast extract concentration was 0.5 g/L or 0.0 g/L as indicated for each experiment; the concentration of MES (2-(N-morpholino)ethanesulfonic acid) was 150 mM; carboxylic acids (propionic, n-butyric, isobutyric, n-valeric or n-caproic acid) were added to final concentrations of 15 mM before adjustment of the pH to 5.5. The syngas atmosphere was a synthetic blend of 60% [vol/vol]carbon monoxide, 35% hydrogen, and 5% carbon dioxide (Airgas East, Ithaca, N.Y.). Precultures of C. ljungdahlii or C. ragsdalei were grown in 250 ml serum bottles containing 20 ml medium with 0.5 g/L or 0.0 g/L yeast extract (the latter for inoculation of experiments with no yeast extract) and syngas in the headspace at a pressure of 28 psi with finite amounts of syngas. Precultures were maintained in an active state by weekly transfer of 2% into a fresh serum bottle with a headspace of finite syngas.
Experimental setup. The experiments to determine the ability of C. ljungdahlii to reduce propionic acid, n-butyric acid, n-valeric acid, n-caproic acid, or isobutyric acid (2-methyl propionic acid) to the corresponding alcohols were performed in triplicate in 250 ml rubber-stoppered Pyrex glass bottles (Fisher Scientific, Pittsburgh, Pa.), which were used as batch systems in regards to the growth medium, but with constant syngas supply (FIG. 1A). Three stainless steel needles of different length (21 gauge, Becton Dickinson Franklin Lakes, N.J., and ColeParmer, Vernon Hills, Ill.) were punched through each rubber stopper as gas supply, vent, and sample ports. The reactors were filled with 220 mL medium containing 0.5 g/L yeast extract and one of each carboxylic acids at a concentration of 15 mM, autoclaved, and then equipped with fermentation airlocks (www.winemakingsuperstore.com) filled with 5% sulfuric acid to prevent contamination by other microbes or oxygen, and placed in a temperature-controlled recirculating water bath for mechanical agitation using a 15 multi-position IKA magnetic stirrer (Cole-Parmer Vernon Hills, Ill. 60061 USA). Artificial syngas was constantly supplied to up to 12 reactors at a time, at a flow rate of 5 mL/min to each reactor with a gassing station with multiple outlets and low-flow brass needle valves (McMaster-Carr, Aurora, Ohio), sterile Masterflex viton tubing (Cole Parmer, Vernon Hills, Ill.), 0.22-μm sterile filters (Fisher Scientific), and sterile needles through the rubber stopper (size 6.5, VWR, Radnor, Pa.) connected to gas diffusion stones (Fisher Scientific). All reactors were inoculated with 2% exponentially growing pre-cultures. The fermentation was operated for ca. 400 h.
(§2) Analytical procedures. Cell dry weight concentration in the cultures was determined through measurement of the optical density with a Milton Roy Spectronic 1201 spectrophotometer at a wavelength of 600 nm after determining a correlation coefficient of 242 mg dry weight/(L*OD600nm). The carbon content was calculated using the universal proportion of elements in microbial biomass (C5H7O2N). A gas chromatography system (HP 5890, Hewlett Packard, Palo Alto, Calif.), which was equipped with a 7673 autoinjector and flame ionization detector, was used for the quantification of carboxylic acids and alcohols. GC columns were purchased from Sigma-Aldrich, Inc., St. Louis, Mo. The flow rates of hydrogen, air, and helium were 35, 380, and 30 mL/min. […]

C. ragsdalei P11 = test: as above; type: cell-based, Clostridium ragsdalei; settings: 15 mM carboxylic acid; for max. opt. density at 600 nm: triplicate
Protocol: as §1
Experimental setup. The experiments to determine the ability of C. ljungdahlii to reduce propionic acid, n-butyric acid, n-valeric acid, n-caproic acid, or isobutyric acid (2-methyl propionic acid) to the corresponding alcohols were performed in triplicate in 250 ml rubber-stoppered Pyrex glass bottles (Fisher Scientific, Pittsburgh, Pa.), which were used as batch systems in regards to the growth medium, but with constant syngas supply (FIG. 1A). Three stainless steel needles of different length (21 gauge, Becton Dickinson Franklin Lakes, N.J., and ColeParmer, Vernon Hills, Ill.) were punched through each rubber stopper as gas supply, vent, and sample ports. […]
as §2, with “alcohols.” for “alcohols. GC columns were purchased from Sigma-Aldrich, Inc., St. Louis, Mo. The flow rates of hydrogen, air, and helium were 35, 380, and 30 mL/min.”

C. ljungdahlii ERI-2 [2] = test: Batch syngas fermentation in 1 L bottles with a finite amount of syngas (stoichiometry); type: cell-based, Clostridium ljungdahlii; settings: 15 mM n-butyric acid, 25 to 115 h
Protocol: The stoichiometry of substrates and products of syngas fermentation with 0 mM n-butyric acid and 15 mM n-butyric acid was determined in 1 L rubber-stoppered Pyrex glass bottles filled with […] medium without yeast extract and 1051.6 ml syngas headspace at a pressure of 28 psi. […] Here, yeast extract was omitted from the growth medium to minimize the interference of organic compounds (amino acids) in the fermentation. Two needles, each connected to a three-way valve, were used to take gas or liquid samples from the reactor. Gas pressure was measured using gauge pressure transducers (Model PX26, Omega Engineering, Inc., Stamford, Conn.) attached to hypodermic needles inserted through a rubber septum on the three-way valve of the sampling port. […] Cell density (OD600nm), pH, headspace gas pressure, concentrations of carbon monoxide, hydrogen, and carbon dioxide in the headspace, and concentrations of carboxylic acids and solvents in the culture medium were monitored daily. […]
Analytical procedures. Cell dry weight concentration in the cultures was determined through measurement of the optical density with a Milton Roy Spectronic 1201 spectrophotometer at a wavelength of 600 nm after determining a correlation coefficient of 242 mg dry weight/(L*OD600nm). The carbon content was calculated using the universal proportion of elements in microbial biomass (C5H7O2N). […]

SMILES	growth rate (C. ljungdahlii ERI-2 [1]) [h⁻¹]	max. opt. density at 600 nm (C. ljungdahlii ERI-2 [1])	growth rate (C. ragsdalei P11) [h⁻¹]	max. opt. density at 600 nm (C. ragsdalei P11)	cell mass DW (C. ljungdahlii ERI-2 [2]) [mg]	maximum OD600 (C. ljungdahlii ERI-2 [2])
CC(C)C(=O)O [isobutyric acid]	0.077 ± 0.008	2.50 ± 0.31	–	–	–	–
CCC(=O)O [propionic acid]	0.084 ± 0.012	2.69 ± 0.19	0.093 ± 0.024	0.53 ± 0.14	–	–
CCCCCC(=O)O [n-caproic acid]	0.049 ± 0.003	1.47 ± 0.17	–	–	–	–
CCCC(=O)O [n-butyric acid]	0.094 ± 0.004	2.71 ± 0.39	0.120 ± 0.004	0.98 ± 0.05	16.65 ± 2.99	1.34 ± 0.21
CCCCC(=O)O [n-valeric acid]	0.077 ± 0.007	2.01 ± 0.04	–	–	–	–
